The values below come from US7737121B2, “Insulin secretion by anthocyanins and anthocyanidins” (Board of Trustees of Michigan State University, priority 2004, dated 2010).

For experiment [1] the following is noted: mice; cited from earlier work.
In experiment [2] the test system is INS-1 832/13 cells. Briefly: Insulin secretion by INS-1 832/13 pancreatic beta cells (static secretion, insulin by RIA, normalized to cellular protein). It counts as cell-based, rodent. The conditions noted are these: for increase in insulin secretion: increase over untreated cells; for fold increase in insulin secretion: versus untreated cells. As to the method: Insulin Secretion Studies. INS-1 832/13 cells (kindly provided by Dr Christopher Newgard, Duke University, NC) (18) were routinely cultured in 5% CO2/air at 37° C. in RPMI-1640 medium containing 11.1 mM glucose and supplemented with 10% FBS (Fetal Bovine Serum), 10 mM HEPES, 100 U/ml penicillin, 100 μg/ml streptomycin, 4 mM Glutamine, 1 mM sodium pyruvate, and 50 μM 2-mercaptoethanol. Cells were passed weekly after trypsin-EDTA detachment. For static secretion studies, cells were plated on 24 well plates at a density of 0.64×10^6 cells per well and grown for 24 h. The cells were then cultured for an additional 24 h in RPMI-1640 containing 4 mM glucose and the supplements described above. Cells were then incubated twice for 30 min in Krebs Ringer Bicarbonate buffer (KRBB) containing 4 mM glucose and 0.1% BSA. Cells were rapidly washed with KRBB and incubated for 60 min KRBB containing 4 or 10 mM glucose with or without the indicated anthocyanins or anthocyanidins. The medium was then removed for determining insulin release. The cells were then washed twice with PBS and dissolved in 1 M NaOH. Cellular protein concentration was then determined by Lowry assay. Anthocyanins and anthocyanidins were dissolved in DMSO to obtain desired concentrations. Final concentration of DMSO was 0.1%. The insulin secreted into the medium by the cells was determined by radioimmuno assay and normalized to total cellular protein.
Radio Immuno Assay (RIA). The Kit for RIA was purchased from LINCO Research Inc. (St Charles, Mo.), and the assay was conducted according to the manufacturer's directions. Briefly, 0.1-10 ng of insulin standards (100 μl) were added to 12×75 mm test tubes. Similarly, samples (25 μl) from the insulin secretion studies were also added to the test tubes. To this, an aliquot (75 μl) of assay buffer was added. The ^125I labeled insulin (100 μl) was then added to each test tube. […] The tubes were then centrifuged and the radioactivity was measured using a gamma counter.
Lowry protein Assay. The amount of protein in the assay wells was determined by Lowry method (Francis, J. A., et al., Helv. Chim. Acta 87 317-326 (2004)). The Lowry assay solution was prepared by combining the Lowry solution, CuSO4.5H2O (1%), and sodium tartarate (1%). Briefly, the protein sample (100 μl) and Lowry mixture (1 mL) were mixed in a test tube (12×75). The Folin-Ciolatues reagent (100 μl) was added to these tubes, mixed, and incubated for 30 min at room temperature. The optical density of resulting solutions was read at 700 nm using a UV spectrophotometer.

The mark [3] stands for this setting: 4 mM glucose, 50 μg/mL compound.
The mark [4] stands for this setting: 10 mM glucose, 50 μg/mL compound.

As to `OC[C@H]1O[C@@H](Oc2cc3c(O)cc(O)cc3[o+]c2-c2ccc(O)c(O)c2)[C@H](O)[C@@H](O)[C@@H]1O` [Compound 1, cyanidin-3-glucoside], the “high fat diet induced obesity” value in experiment [1] is on record as “reduced”. The “insulin secreted (dose dependent assay)” value in experiment [2] (4 mM glucose, 5 μg/mL compound, untreated cells 33) is 46 ng of insulin per mg protein. For the same molecule, the “effect on insulin secretion, result in words” value (shortened to “effect on insulin secretion”) in experiment [2] (setting [3]) was “less active than delphinidin-3-glucoside”; in experiment [2] (setting [4]), “more active”; in experiment [2] (4 and 10 mM glucose) it was “most effective insulin secretagogues”. Also, in experiment [2] (4 mM glucose, 50 μg/mL compound, 60 min), the “increase in insulin secretion” value is reported as 9 ng/mg of protein. The “fold increase in insulin secretion” value in experiment [2] (setting [3]) was 1.3 fold. Also, the “insulin secretion (dose dependent assay), result in words” value in experiment [2] (4 mM glucose, 10, 50, 100 and 250 μg/mL compound) is recorded as “no significant difference”.

Turning to `OC[C@H]1O[C@@H](Oc2cc3c(O)cc(O)cc3[o+]c2-c2cc(O)c(O)c(O)c2)[C@H](O)[C@@H](O)[C@@H]1O` [Compound 2, delphinidin-3-glucoside], the insulin secreted in experiment [2] (4 mM glucose, 50 μg/mL compound, total secreted by treated cells) is given as 49 ng/mg of protein. Also, the “fold increase in insulin secretion” value came to 1.8 fold in experiment [2] (setting [3]) and 1.4 fold in experiment [2] (setting [4]). In addition, the “effect on insulin secretion” value in experiment [2] (4 and 10 mM glucose) is on record as “most effective insulin secretagogues”; in experiment [2] (4 and 10 mM glucose, listed as delphinidin-3-glucoside) it was “significantly induced the insulin secretion”.

As for `OCC1OC(Oc2cc3c(O)cc(O)cc3[o+]c2-c2ccc(O)cc2)C(O)C(O)C1O` (stereo not shown) [Compound 4, pelargonidin-3-galactoside], the “effect on insulin secretion” value in experiment [2] (setting [3]) is recorded as “did not increase the insulin secretion”; in experiment [2] (4 and 10 mM glucose) it was “did not induce insulin secretion”.

Turning to `OC[C@H]1O[C@@H](Oc2cc3c(O)cc(O)cc3[o+]c2-c2ccc(O)c(O)c2)[C@H](O)[C@@H](O)[C@H]1O` [Compound 3, cyanidin-3-galactoside], the “effect on insulin secretion” value in experiment [2] (setting [3]) is “did not increase the insulin secretion”. Moreover, in experiment [2] (setting [4]), the “increase in insulin secretion” value was 17 ng/mg of protein and the “fold increase in insulin secretion” value is reported as 1.2 fold. Further, in experiment [2] (4 and 10 mM glucose), the “effect on insulin secretion” value is given as “significant increase in insulin secretion”.
